ChEMBL document CHEMBL4007424, “Design and Synthesis of Enantiomerically Pure Decahydroquinoxalines as Potent and Selective κ-Opioid Receptor Agonists with Anti-Inflammatory Activity in Vivo” (J Med Chem, 2017)

Assays:
Rattus norvegicus [1] = assay: Toxicity in Wistar Han rat assessed as assessed as clinical signs changes at 5 mg/kg, iv after 1 hr; format: organism-based; conditions: in vivo
[2] = Ratio of drug level in brain to plasma in Wistar Han rat at 5 mg/kg, iv after 1 hr; format: ADME, organism-based; conditions: read-out: BPR
[3] = Plasma concentration in Wistar Han rat at 5 mg/kg, iv measured 1 hr post compound administration; format: ADME, organism-based
[4] = Plasma concentration in Wistar Han rat at 5 mg/kg, iv measured 0.25 hrs post compound administration; format: ADME, organism-based
[5] = Drug level in Wistar Han rat brain at 5 mg/kg, iv measured 1 hr post compound administration; format: ADME, organism-based; conditions: read-out: Drug uptake
Rattus norvegicus [6] = species: Rattus norvegicus; assay: Displacement of [3H]-DTG from sigma 2 receptor in rat liver membranes at 1 uM after 120 mins by scintillation counting; format: cell membranes; conditions: Membrane
Sus scrofa = species: Sus scrofa; assay: Displacement of [3H]-(+)-MK 801 from PCP binding site of NMDA receptor in pig brain cortex membranes at 10 uM after 120 mins by solid scintillation counting; format: cell membranes
[7] = target: Sigma non-opioid intracellular receptor 1 (Cavia porcellus) (UniProt Q60492); assay: Displacement of [3H]-(+)-pentazocine from sigma1-type […] receptor in guinea pig cortex membranes at 1 uM after 120 mins by solid scintillation counting; format: cell membranes
[8] = target: Mu-type opioid receptor (Cavia porcellus) (UniProt P97266); assay: Displacement of [3H]DAMGO from mu-type opioid receptor in guinea pig brain membranes at 1 uM after 120 mins by solid scintillation counting; format: cell membranes; conditions: Membrane
[9] = target: T1, Kappa-type opioid receptor (Homo sapiens, UniProt P41145); assay: Agonist activity at recombinant human kappa-type opioid receptor expressed in HEK293 cells at 1 uM after 30 mins by [35S]GTPgammaS binding assay; format: functional, cell-based
Mus musculus [10] = assay: Antiinflammatory activity in arachidonic acid-induced ear dermatitis ICR mouse model assessed as reduction in ear swelling at 3 mg administered twice tropically 30 mins prior and 15 mins after arachidonic acid addition measured 60 mins post arachidonic acid challenge relative to control; format: functional
[11] = Displacement of [3H]DPDPE from delta-type opioid receptor in guinea pig brain membranes after 120 mins by solid scintillation counting; format: cell membranes, Cavia porcellus, Membrane
[12] = Lipophilicity, logD of the compound at pH 7.4 by LC/MS analysis; format: physicochemical; conditions: buffer
[13] = target: T1, Kappa-type opioid receptor; assay: Agonist activity at recombinant human kappa-type opioid receptor expressed in HEK293 cells after 30 mins by [35S]GTPgammaS binding assay; format: functional, cell-based
Mus musculus [14] = assay: Antiinflammatory activity in arachidonic acid-induced ear dermatitis ICR mouse model assessed as reduction in ear swelling at 0.3 mg administered twice tropically 30 mins prior and 15 mins after arachidonic acid addition measured 60 mins post arachidonic acid challenge relative to control; format: functional
Mus musculus [15] = assay: Antiinflammatory activity in arachidonic acid-induced ear dermatitis ICR mouse model assessed as reduction in ear swelling at 0.1 mg administered twice tropically 30 mins prior and 15 mins after arachidonic acid addition measured 60 mins post arachidonic acid challenge relative to control; format: functional
Mus musculus [16] = assay: Antiinflammatory activity in arachidonic acid-induced ear dermatitis ICR mouse model assessed as reduction in ear swelling at 1 mg administered twice tropically 30 mins prior and 15 mins after arachidonic acid addition measured 60 mins post arachidonic acid challenge relative to control; format: functional
[17] = target: Kappa-type opioid receptor (Cavia porcellus, UniProt P41144); assay: Displacement of [3H]U-69,593 from kappa-type opioid receptor in guinea pig brain membranes after 120 mins by solid scintillation counting; format: cell membranes, Membrane
Mu-type opioid receptor = Mu-type opioid receptor (Cavia porcellus, UniProt P97266); assay: Displacement of [3H]DAMGO from mu-type opioid receptor in guinea pig brain membranes after 120 mins by solid scintillation counting; format: cell membranes, Membrane
[18] = Plasma concentration in Wistar Han rat at 1 mg/kg, iv measured 0.25 hrs post compound administration; format: ADME, organism-based
Rattus norvegicus [19] = assay: Toxicity in Wistar Han rat assessed as clinical signs changes at 1 mg/kg, iv after 1 hr; format: organism-based; conditions: in vivo
[20] = Ratio of drug level in brain to plasma in Wistar Han rat at 1 mg/kg, iv after 1 hr; format: ADME, organism-based; conditions: read-out: BPR
[21] = Drug level in Wistar Han rat brain at 1 mg/kg, iv measured 1 hr post compound administration; format: ADME, organism-based; conditions: Wistar Han, brain, read-out: Drug uptake
[22] = Plasma concentration in Wistar Han rat at 1 mg/kg, iv measured 1 hr post compound administration; format: ADME, organism-based

Chain of Kappa-type opioid receptor (Cavia porcellus, UniProt P41144) (P41144 whole entry): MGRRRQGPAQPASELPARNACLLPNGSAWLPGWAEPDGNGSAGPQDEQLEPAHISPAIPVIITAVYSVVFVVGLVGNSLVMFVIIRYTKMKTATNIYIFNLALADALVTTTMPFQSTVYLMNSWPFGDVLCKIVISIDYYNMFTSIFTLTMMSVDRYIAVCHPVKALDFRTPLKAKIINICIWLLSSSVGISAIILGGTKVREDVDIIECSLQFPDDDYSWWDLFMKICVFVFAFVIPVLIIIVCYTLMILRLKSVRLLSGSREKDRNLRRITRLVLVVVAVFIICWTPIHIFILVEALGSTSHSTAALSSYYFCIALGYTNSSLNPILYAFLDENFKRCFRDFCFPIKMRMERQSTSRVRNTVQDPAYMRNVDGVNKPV
T1 sequence (P41145 whole entry): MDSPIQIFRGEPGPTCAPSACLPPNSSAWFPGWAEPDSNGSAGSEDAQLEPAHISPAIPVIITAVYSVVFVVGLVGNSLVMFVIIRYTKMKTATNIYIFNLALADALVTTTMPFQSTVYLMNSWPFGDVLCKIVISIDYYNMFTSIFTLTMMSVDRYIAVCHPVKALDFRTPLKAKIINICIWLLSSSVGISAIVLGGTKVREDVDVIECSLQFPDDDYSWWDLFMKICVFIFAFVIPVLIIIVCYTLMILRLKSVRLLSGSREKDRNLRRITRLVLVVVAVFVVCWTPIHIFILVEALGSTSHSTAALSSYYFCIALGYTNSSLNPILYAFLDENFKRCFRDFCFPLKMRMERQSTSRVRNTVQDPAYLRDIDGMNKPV
Chain of Mu-type opioid receptor (Cavia porcellus) (P97266 whole entry): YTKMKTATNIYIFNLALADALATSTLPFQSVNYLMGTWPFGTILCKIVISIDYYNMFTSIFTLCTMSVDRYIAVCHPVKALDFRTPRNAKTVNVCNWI
Chain of Mu-type opioid receptor (P97266 whole entry): as above
Chain of Sigma non-opioid intracellular receptor 1 (Cavia porcellus) (Q60492 whole entry): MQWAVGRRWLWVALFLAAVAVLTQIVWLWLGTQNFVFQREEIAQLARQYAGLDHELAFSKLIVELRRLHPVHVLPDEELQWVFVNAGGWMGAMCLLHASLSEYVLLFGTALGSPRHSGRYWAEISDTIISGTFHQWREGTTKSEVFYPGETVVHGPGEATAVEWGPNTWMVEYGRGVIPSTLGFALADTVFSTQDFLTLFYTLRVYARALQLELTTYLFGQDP

SMILES: COC(=O)N1CCN(C(=O)Cc2ccc(Cl)cc2)[C@@H]2[C@@H](N3CC[C@H](O)C3)CCC[C@@H]21.Cl
- Activity (Rattus norvegicus [1]): Non-Toxic
- Kp at 1 h [2]: 0.19
- concentration at 1 h [3]: 374 ng/mL
- concentration at 0.25 h [4]: 1340 ng/mL
- concentration at 1 h [5]: 70.6 ng/g

SMILES: COC(=O)N1CCN(C(=O)Cc2ccc(Cl)c(Cl)c2)[C@@H]2[C@@H](N3CC[C@@H](O)C3)CCC[C@@H]21
- inhibition (Rattus norvegicus [6]): 13%
- inhibition (Sus scrofa): 55%
- inhibition [7]: 0%
- inhibition [8]: 5%
- Activity [9]: 109%

SMILES: COC(=O)N1CCN(C(=O)Cc2ccc(F)c(F)c2)[C@@H]2[C@@H](N3CC[C@H](O)C3)CCC[C@@H]21
- inhibition (INH) (Mus musculus [10]): 64%
- Ki [11]: 623 nM
- logD [12]: 0.77
- EC50 [13]: 11 nM
- inhibition (INH) (Mus musculus [14]): -20%
- inhibition (INH) (Mus musculus [15]): 1%
- inhibition (INH) (Mus musculus [16]): -11%
- Ki [17]: 1.2 nM

SMILES: O=C(Cc1ccc(Cl)cc1)N1CCN(S(=O)(=O)Cc2ccon2)[C@H]2CCC[C@H](N3CC[C@H](O)C3)[C@H]21
- Ki [11]: 880 nM
- EC50 [13]: 6.9 nM
- inhibition (Rattus norvegicus [6]): 0%
- inhibition (Sus scrofa): 0%
- inhibition [7]: 24%
- inhibition [8]: 0%
- Activity [9]: 103%
- Ki [17]: 0.98 nM

SMILES: COC(=O)N1CCN(C(=O)Cc2ccc(Cl)c(F)c2)[C@@H]2[C@@H](N3CC[C@H](O)C3)CCC[C@@H]21.Cl
- Activity (Rattus norvegicus [1]): Non-Toxic
- Kp at 1 h [2]: 0.12
- concentration at 1 h [3]: 546 ng/mL
- concentration at 0.25 h [4]: 1350 ng/mL
- concentration at 1 h [5]: 66.2 ng/g

SMILES: CS(=O)(=O)N1CCN(C(=O)Cc2ccc(F)c(Cl)c2)[C@@H]2[C@@H](N3CC[C@H](O)C3)CCC[C@@H]21.Cl
- Activity (Rattus norvegicus [1]): Non-Toxic
- Kp at 1 h [2]: 0.11
- concentration at 1 h [3]: 356 ng/mL
- concentration at 0.25 h [4]: 1210 ng/mL
- concentration at 1 h [5]: 38.7 ng/g

SMILES: COC(=O)N1CCN(C(=O)Cc2ccc(Cl)cc2)[C@@H]2[C@@H](N3CC[C@H](O)C3)CCC[C@@H]21
- inhibition (INH) (Mus musculus [10]): 62%
- Ki [11]: 451 nM
- EC50 [13]: 14 nM
- inhibition (INH) (Mus musculus [14]): 27%
- Ki (Mu-type opioid receptor): 365 nM
- inhibition (INH) (Mus musculus [15]): 24%
- inhibition (INH) (Mus musculus [16]): 27%
- Ki [17]: 0.65 nM

SMILES: O=C(Cc1ccc(Cl)c(F)c1)N1CCN(S(=O)(=O)Cc2ccon2)[C@H]2CCC[C@H](N3CC[C@H](O)C3)[C@H]21
- Ki [11]: 1380 nM
- logD [12]: 1.4
- EC50 [13]: 1.4 nM
- inhibition (Rattus norvegicus [6]): 7%
- inhibition (Sus scrofa): 13%
- inhibition [7]: 0%
- inhibition [8]: 6%
- Activity [9]: 105%
- Ki [17]: 0.82 nM

SMILES: COC(=O)N1CCN(C(=O)Cc2ccc(Cl)c(Cl)c2)[C@@H]2[C@@H](N3CC[C@@H](O)C3)CCC[C@@H]21.Cl
- concentration at 0.25 h [18]: 454 ng/mL
- Activity (Rattus norvegicus [19]): Non-Toxic
- Kp at 1 h [20]: 0.07
- concentration at 1 h [21]: 7.9 ng/g
- concentration at 1 h [22]: 115 ng/mL

SMILES: CS(=O)(=O)N1CCN(C(=O)Cc2ccc(Cl)c(Cl)c2)[C@@H]2[C@@H](N3CC[C@H](O)C3)CCC[C@@H]21.Cl
- Activity (Rattus norvegicus [1]): Non-Toxic
- Kp at 1 h [2]: 0.02
- concentration at 1 h [3]: 2170 ng/mL
- concentration at 0.25 h [4]: 4650 ng/mL
- concentration at 1 h [5]: 52.3 ng/g

SMILES: COC(=O)N1CCN(C(=O)Cc2ccc(F)c(F)c2)[C@@H]2[C@@H](N3CC[C@H](O)C3)CCC[C@@H]21.Cl
- Activity (Rattus norvegicus [1]): Non-Toxic
- Kp at 1 h [2]: 0.12
- concentration at 1 h [3]: 392 ng/mL
- concentration at 0.25 h [4]: 1410 ng/mL
- concentration at 1 h [5]: 46.4 ng/g

SMILES: COC(=O)CN1CCN(C(=O)Cc2ccc(Cl)c(Cl)c2)[C@@H]2[C@@H](N3CCCC3)CCC[C@@H]21.Cl
- concentration at 0.25 h [18]: 477 ng/mL
- Activity (Rattus norvegicus [19]): Non-Toxic
- Kp at 1 h [20]: 0.02
- concentration at 1 h [21]: 4.6 ng/g
- concentration at 1 h [22]: 199 ng/mL

SMILES: COC(=O)N1CCN(C(=O)Cc2ccc(Cl)c(F)c2)[C@@H]2[C@@H](N3CC[C@H](O)C3)CCC[C@@H]21
- inhibition (INH) (Mus musculus [10]): 68%
- Ki [11]: 250 nM
- EC50 [13]: 3.9 nM
- inhibition (INH) (Mus musculus [14]): 37%
- Ki (Mu-type opioid receptor): 551 nM
- inhibition (INH) (Mus musculus [15]): 2%
- inhibition (INH) (Mus musculus [16]): 59%
- Ki [17]: 1.8 nM

SMILES: COC(=O)N1CCN(C(=O)Cc2ccc(F)c(Cl)c2)[C@@H]2[C@@H](N3CC[C@H](O)C3)CCC[C@@H]21.Cl
- Activity (Rattus norvegicus [1]): Non-Toxic
- Kp at 1 h [2]: 0.09
- concentration at 1 h [3]: 465 ng/mL
- concentration at 0.25 h [4]: 970 ng/mL
- concentration at 1 h [5]: 44 ng/g

SMILES: CS(=O)(=O)N1CCN(C(=O)Cc2ccc(Cl)c(F)c2)[C@@H]2[C@@H](N3CC[C@H](O)C3)CCC[C@@H]21.Cl
- Activity (Rattus norvegicus [1]): Non-Toxic
- Kp at 1 h [2]: 0.09
- concentration at 1 h [3]: 437 ng/mL
- concentration at 0.25 h [4]: 938 ng/mL
- concentration at 1 h [5]: 37.5 ng/g

SMILES: COC(=O)N1CCN(C(=O)Cc2cccc(Cl)c2)[C@@H]2[C@@H](N3CC[C@H](O)C3)CCC[C@@H]21
- inhibition (INH) (Mus musculus [10]): 55%
- Ki [11]: 1120 nM
- EC50 [13]: 15 nM
- inhibition (INH) (Mus musculus [14]): 12%
- Ki (Mu-type opioid receptor): 512 nM
- inhibition (INH) (Mus musculus [15]): -15%
- inhibition (INH) (Mus musculus [16]): 44%
- Ki [17]: 1.7 nM

SMILES: CC(C)NC(=O)N1CCN(C(=O)Cc2ccc(Cl)c(Cl)c2)[C@@H]2[C@@H](N3CCCC3)CCC[C@@H]21.Cl
- concentration at 0.25 h [18]: 290 ng/mL
- Activity (Rattus norvegicus [19]): Non-Toxic
- Kp at 1 h [20]: 0.02
- concentration at 1 h [21]: 2.9 ng/g
- concentration at 1 h [22]: 130 ng/mL

SMILES: COC(=O)N1CCN(C(=O)Cc2cccc(Cl)c2)[C@@H]2[C@@H](N3CC[C@H](O)C3)CCC[C@@H]21.Cl
- Activity (Rattus norvegicus [1]): Non-Toxic
- Kp at 1 h [2]: 0.1
- concentration at 1 h [3]: 414 ng/mL
- concentration at 0.25 h [4]: 1500 ng/mL
- concentration at 1 h [5]: 41.2 ng/g

SMILES: CC(C)NC(=O)N1CCN(C(=O)Cc2ccc(Cl)c(Cl)c2)[C@@H]2[C@@H](N3CCCC3)CCC[C@@H]21
- inhibition (Rattus norvegicus [6]): 0%
- inhibition (Sus scrofa): 0%
- inhibition [7]: 0%
- inhibition [8]: 0%
- Activity [9]: 100%

SMILES: CS(=O)(=O)N1CCN(C(=O)Cc2ccc(Cl)c(Cl)c2)[C@@H]2[C@@H](N3CCCC3)CCC[C@@H]21.Cl
- concentration at 0.25 h [18]: 246 ng/mL
- Activity (Rattus norvegicus [19]): Non-Toxic
- Kp at 1 h [20]: 0.02
- concentration at 1 h [21]: 2.9 ng/g
- concentration at 1 h [22]: 124 ng/mL
